Experimental data from US11274106B2, “Topoisomerase inhibitors with antibacterial and anticancer activity” (THE BOARD OF TRUSTEES OF THE UNIVERSITY OF ILLINOIS, priority 2017, dated 2022).
Values after ≈ are worked out from the molar mass of the structure shown.

Assays:
[1] = system: MRSA; test: Antibacterial MIC, microbroth dilution, MRSA; format: cell-based, S. aureus; settings: Staphylococcus aureus, MRSA; microbroth dilution
Procedure: To investigate this possibility, the antibacterial effects of the DNM derivatives was assessed against strains of E. coli, S. aureus, and MRSA using the microbroth dilution method (Table 2).

[2] = target: E. coli DNA Gyrase (Escherichia coli, UniProt P0AES4+P0AES6); test: E. coli DNA Gyrase supercoiling assay; format: biochemical
Chain of E. coli DNA Gyrase (P0AES4 whole entry, one chain of several): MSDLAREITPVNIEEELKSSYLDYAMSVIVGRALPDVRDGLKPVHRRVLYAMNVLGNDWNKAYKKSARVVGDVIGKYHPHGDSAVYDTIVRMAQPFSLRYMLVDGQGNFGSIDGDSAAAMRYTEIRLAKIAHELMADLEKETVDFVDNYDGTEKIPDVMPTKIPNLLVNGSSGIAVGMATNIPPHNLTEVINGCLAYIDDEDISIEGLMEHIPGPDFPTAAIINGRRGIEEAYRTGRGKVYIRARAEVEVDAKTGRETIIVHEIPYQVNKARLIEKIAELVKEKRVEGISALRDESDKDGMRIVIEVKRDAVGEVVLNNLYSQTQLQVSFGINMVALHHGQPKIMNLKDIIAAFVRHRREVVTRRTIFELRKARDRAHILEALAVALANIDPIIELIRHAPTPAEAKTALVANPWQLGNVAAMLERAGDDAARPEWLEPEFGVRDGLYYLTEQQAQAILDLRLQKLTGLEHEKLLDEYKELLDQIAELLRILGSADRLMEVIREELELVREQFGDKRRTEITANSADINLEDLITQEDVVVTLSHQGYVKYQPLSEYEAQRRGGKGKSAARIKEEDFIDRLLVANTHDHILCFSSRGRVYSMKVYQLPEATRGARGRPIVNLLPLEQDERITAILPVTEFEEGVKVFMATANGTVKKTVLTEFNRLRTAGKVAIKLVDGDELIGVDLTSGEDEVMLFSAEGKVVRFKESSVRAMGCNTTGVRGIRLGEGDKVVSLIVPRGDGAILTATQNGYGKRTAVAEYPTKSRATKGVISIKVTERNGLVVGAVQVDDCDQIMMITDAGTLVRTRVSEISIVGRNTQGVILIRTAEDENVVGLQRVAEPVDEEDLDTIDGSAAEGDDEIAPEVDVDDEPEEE
From the text: FIG. 8. In vitro inhibitory activity of 6DNM-NH3, Ph-6DNM-NH3 against E. coli DNA gyrase and TopoIV.
DNM and its derivatives exert their antibacterial effects through inhibition of the DNA Gyrase.

Cc1cc(=O)n2c3c(c4c(cc13)c1ccccc1c(=O)n4C)OCC2CN (centres unmarked) [Compound 15]
MIC [1]: 1 µg/mL (≈ 2.77 µM)
Inhibition of purified E. coli DNA Gyrase [2]: able to inhibit
